Reference: the METLIN SMRT retention time set (Domingo-Almenara et al. 2019)

Test: gradient 5% acetonitrile 3 min, to 50% in 2 min, to 85% in 15 min, held 3 min, 100 µL/min
Details: column: Zorbax Extend-C18 2.1 x 50 mm; eluents: water / acetonitrile, 0.1% formic acid
Procedure, shortened: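 Retention times of pure standards were taken from adduct peaks that were selected by computer and manually inspected. Over 3 months, mixtures of ~100 molecules were run by HPLC–quadrupole time-of-flight mass spectrometry in positive and negative ionization mode. The Zorbax Extend-C18 column (2.1 × 50 mm, 1.8 μm) ran at 100 μL/min in water and acetonitrile, each containing 0.1% formic acid, with 40 μL dead volume and 900 μL dwell volume.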

| SMILES | RP-LC retention time |
| --- | --- |
| Cc1ccc(N2C(=O)C3N=NN(Cc4nc(-c5ccccc5C)no4)C3C2=O)cc1C (configuration not stated) | 1060 s |
| CCOCCCNCc1ccc(-c2cc(Cl)ccc2Cl)o1 | 753 s |
| O=C(Cc1ccc(Cl)cc1)N1CCc2nc(-c3ccc(Cl)cc3)ncc2C1 | 1130 s |
| Clc1ccc(Nc2nc3ccccc3c3nc(C4CCCCC4)[nH]c23)cc1Cl | 1130 s |
| Cc1c(CNCCN(C)C)c(C(=O)O)c(C)n1Cc1ccccc1F | 591 s |
| O=C(C1COc2ccccc2O1)N1CCCC(COCc2ccccc2)C1 (configuration not stated) | 1030 s |
| Cc1nc(NCCNC(=O)c2cccs2)cc(N2CCCC2)n1 | 560 s |
| Cc1cc(N2CCN(C(=O)c3ccco3)CC2)n2nc(C)c(-c3ccc(Cl)cc3)c2n1 | 838 s |
| Cc1oc(-c2ccc(NC(=O)c3ccco3)cc2)nc1Cn1cccn1 | 759 s |
| CCCNc1cc(N2CCC(CCC(=O)NCc3c(C)nn(C)c3C)CC2)ncn1 | 594 s |
| O=C([C@@H]1C[C@H](F)CN1C(=O)c1cccc(Br)c1)N1CCCCC1 | 742 s |
| CC(C)Oc1ccc(-c2noc(Cn3nc(-c4ccc5c(c4)OCO5)ccc3=O)n2)cc1 | 1080 s |
| Cc1ccc(C)c(C(=O)N2CCN(c3cc(C)nc(N4CCOCC4)n3)CC2)c1 | 637 s |
| Cc1ccc(NC(=O)Cn2nnc(C(=O)NCc3cccs3)c2N)cc1 | 593 s |
| COc1cccc(S(=O)(=O)N2CCc3nc(-c4ccc(Cl)cc4)ncc3C2)c1 | 1200 s |
| COC(=O)CCN(C(=O)c1ccc(OC(C)=O)cc1)c1ccccn1 | 668 s |
| Cc1ccc(C)c(NC(=O)Cn2c(C)nc3c(sc4nc(-c5ccccc5)ccc43)c2=O)c1 | 1090 s |
| CCn1cc(-c2nc(C)c(C(=O)Nc3ccccc3C)s2)c2cccnc21 | 980 s |
| COC(=O)c1cnc2nc(C)ccc2c1Nc1ccc(Cl)cc1F | 711 s |
| CCCNC(=O)N1CCCC1c1nc(-c2ccc(OC)cc2)no1 (configuration not stated) | 758 s |
| Cc1cc(C)c(Nc2ccnc(Nc3ccc(C#N)cc3)n2)c(C)c1 | 798 s |
| CCCCc1ccc(Nc2nc(C(=O)OCC)nc3ccccc23)cc1 | 1110 s |
| O=C(CCC1CCCC1)N1CCN(c2nnc3c(Cl)cccn23)CC1 | 691 s |

| SMILES | RP-LC retention time |
| --- | --- |
| Cc1nn(-c2ccccc2)c(C)c1S(=O)(=O)N1CCC(C(=O)NC2CC2)CC1 | 744 s |
| COc1ccc(NC(=O)N2CCCC(C)(C(=O)NCc3ccc(C)cc3)C2)cc1 (configuration not stated) | 874 s |
| Cc1ccc(NC(=O)c2cc(C(C)C)n3nccc3n2)cc1C | 1250 s |
| Cc1nc(-c2csc(S(=O)(=O)N3CCCC(C(=O)NCc4ccccc4Cl)C3)c2)no1 (configuration not stated) | 940 s |
| COc1ccc2[nH]c3c(c2c1)CCNC31CCN(Cc2ccc(F)c(F)c2)CC1 | 587 s |
| O=c1c2nc(-c3ccccc3)cn2ccn1-c1ccc(F)cc1 | 775 s |
| CN(C)C(=O)c1ccc2c(c1)nnn2CCNC(=O)Nc1cccc(Cl)c1 | 684 s |
| CSc1ccccc1NC(=O)c1nnn(-c2nc3c(s2)CCCC3)c1C | 972 s |
| CCn1ccc2sc(C)c(C(=O)NCCC(C)C)c2c1=O | 806 s |
| Cc1cc(S(=O)(=O)N2C[C@@H](F)C[C@H]2C(=O)N2CCCCC2)ccc1F | 786 s |
| CCOc1cc(-c2noc(-c3ncn4c3COC(c3ccc(OC)cc3)C4)n2)ccc1OC (configuration not stated) | 992 s |
| O=C(CN1CC=C(c2cnn(-c3ccccc3)c2)CC1)N1CCOCC1 | 604 s |
| Cc1csc(-c2cc(S(=O)(=O)Nc3ccc(Cl)cc3F)c(C)s2)n1 | 1080 s |
| Cc1ccc(C)c(Nc2c(-c3ccc(N(C)C)cc3)nc3ncccn23)c1 | 996 s |
| Cc1nccn1CC(=O)N1CCC(OCc2nc(C3CC3)no2)CC1 | 577 s |
| CCCCN1C(=O)C(C)(C(=O)NCc2ccccc2)Oc2cccnc21 (configuration not stated) | 972 s |
| Cc1ccc(-c2nc3cnccn3c2NCCC(=O)O)cc1 | 610 s |
| COCC(C)NS(=O)(=O)c1c(C)[nH]c(=O)[nH]c1=O (configuration not stated) | 570 s |
| COc1cccc(-c2nc(-c3ccc4oc(-c5ccccc5)nc4c3)no2)c1OC | 1410 s |
| O=[N+]([O-])c1ccccc1S(=O)(=O)Nc1ccc(N2CCOCC2)cc1 | 749 s |
| CCCn1ccc2oc(C)c(C(=O)NC(C)c3ccc(C)cc3C)c2c1=O (configuration not stated) | 1190 s |
| O=c1oc2c(O)c(O)ccc2c2c1CCC2 | 655 s |
| COCCNC(=O)[C@@H]1[C@H](c2cc(OC)c(OC)c(OC)c2)c2cc3c(cc2[C@H](O)[C@H]1CO)OCO3 | 623 s |

Results, then the compound that gave them:

| RP-LC retention time | SMILES |
| --- | --- |
| 808 s | Cc1cccc(NC(=O)N2CCC3(C2)C(=O)N(C)c2ccccc23)c1 (configuration not stated) |
| 1010 s | COC(=O)c1ccc(NC(=O)Cn2cccc(-c3nc(-c4ccc(OC)c(OC)c4)no3)c2=O)cc1 |
| 850 s | O=C(Nc1ccc2c(c1)N(C(=O)c1cccs1)CCC2)c1ccccc1Br |
| 695 s | Cn1nc(N2CCC(NC(=O)c3nccc4ccccc34)C2)ccc1=O (configuration not stated) |
| 610 s | CN1C(=O)C(C)(C)c2cc(S(=O)(=O)N(C)CC(=O)N3CCN(c4ccccn4)CC3)ccc21 |
| 1290 s | CCC(C)n1c(=O)c2ccccc2n(Cc2nc(-c3cccc(Br)c3)no2)c1=O (configuration not stated) |
| 1090 s | COc1ccc(NC(=O)c2cc3c(=O)n(CC(C)C)c4ccccc4n3n2)c(C)c1 |
| 579 s | COc1ccc(C(CC(=O)NCCN2CCN(C)CC2)N2Cc3ccccc3C2=O)cc1OC (configuration not stated) |
| 835 s | COC(=O)c1cn(CC(=O)NC(C)c2ccc3c(c2)OCCCO3)c2ccccc12 (configuration not stated) |
| 764 s | CCc1cc(=O)n(CC(=O)N(C)c2cccc(C)c2)c(N2CCOCC2)n1 |
| 683 s | O=C(C1CCN(Cc2cc3ccccc3n2Cc2ccccc2)CC1)N1CCOCC1 |
| 561 s | CCCn1cc(-c2ccncc2)cc1C(=O)NC1CCN(Cc2ccccc2)CC1 |
| 707 s | COc1ccc(C2(C(=O)NCC3Cn4cccc4C(=O)N3C)CC2)cc1 (configuration not stated) |
| 729 s | COc1ncc(C(=O)N2CCc3ccccc3C2)cn1 |
| 621 s | CCC1CCCCN1CCNC(=O)CCc1cc2ccc(C)cc2[nH]c1=O (configuration not stated) |
| 1070 s | Cc1ccc(CCNC(=O)Cn2nc(-n3cccc3)c3c(C)cc(C)nc32)cc1 |
| 758 s | CCOc1cc(=O)n2c(c1C(=O)Nc1cc(Cl)c(OC)cc1OC)CCCC2 |
| 670 s | CN(CCNC(=O)CN1C(=O)CSc2cccn2-c2ccccc21)C1CCCCC1 |
| 646 s | COc1ccc(CN2CCN(C(=O)CCc3c(C)noc3C)CC2)cn1 |
| 1010 s | Cc1cc2nn(CC(=O)Nc3ccc(C)c(C)c3)c(=O)n2c(N2CCCC2)n1 |
| 681 s | COc1ccc(OC)c(-c2cc(C(=O)Nc3ccc4c(c3)CCC(=O)N4)[nH]n2)c1 |
